Assay results published in patent US7465745B2, “Cathepsin S inhibitors” (Boehringer Ingelheim Pharmaceuticals, Inc., priority 2003, dated 2008).

Target: T1, Human recombinant cathepsin S (Homo sapiens, UniProt P25774)
T1 construct: made in house; host or cells: Sf9 insect cells (baculovirus, pFastBac1)
Assay: Inhibition of Cathepsin S
Type: biochemical
Details: 10 nM enzyme, pH 6.5, 37° C., fluorescence 360/460 nm
Experimental: U937 RNA was subjected to reverse transcriptase/polymerase chain reaction with primer A (5′[sequence] 3′) and primer B (5′[sequence] 3′) designed to specifically amplify the cathepsin S cDNA. The resulting 900 bp DNA fragment was subcloned into pGEM-T (Promega) and sequenced to confirm its identity. This construct was used for all subsequent manipulations.
The ligation mixture was used to transform DH5a competent cells (GibcoBRL) and plated on LB plates containing 100 ug/ml ampicillin. Colonies were grown in overnight cultures of LB media containing 50 ug/ml Ampicillin, plasmid DNA isolated and correct insert confirmed by restriction enzyme digestion. Recombinant pFastBac donor plasmid was transformed into DH10Bac competent cells (GibcoBRL). Large white colonies were picked from LB plates containing 50 ug/ml kanamycin, 7 ug/ml gentamicin, 10 ug/ml tetracycline, 100 ug/ml Bluo-gal, and 40 ug/ml IPTG. DNA was isolated and used to transfect Sf9 insect cells using CellFECTIN reagent (GibcoBRL). Cells and supernatant were harvested after 72 hours. Viral supernatant was passaged twice and presence of Cat S confirmed by PCR of the supernatant. […]
Human recombinant cathepsin S expressed in Baculovirus is used at a final concentration of 10 nM in buffer. […] Compound activity is measured by diminished fluorescence compared to DMSO control when read at 360 nm excitation and 460 nm emission.

T1 sequence (P25774 115-331): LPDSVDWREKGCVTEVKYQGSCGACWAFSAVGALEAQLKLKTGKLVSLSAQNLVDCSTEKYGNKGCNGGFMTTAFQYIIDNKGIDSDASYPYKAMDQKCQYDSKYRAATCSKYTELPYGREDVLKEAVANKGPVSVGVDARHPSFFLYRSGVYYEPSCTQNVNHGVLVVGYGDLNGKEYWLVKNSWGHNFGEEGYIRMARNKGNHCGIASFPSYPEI

CCC(C)(C)CC[C@@H](NC(=O)N1CCOCC1)C(=O)NC1(C#N)CCN(C)CC1 [Morpholine-4-carboxylic acid [(R)-1-(4-cyano-1-methyl-piperidine-4-ylcarbamoyl)-4,4-dimethyl-hexyl]-amide]
IC50: > 100 nM
